Data taken from publication PMC6132687, “Stem cells are the most sensitive screening tool to identify toxicity of GATA4-targeted novel small-molecule compounds” (Archives of Toxicology, 2018).

Test system: GATA4–NKX2-5 transcriptional synergy
Assay: Luciferase reporter assay of GATA4–NKX2-5 synergistic gene activation in COS-1 cells
Format: cell-based, African green monkey
Settings: 24 h treatment, normalized to DMSO
Method: COS-1 cells were used to investigate the compound effects on GATA4–NKX2-5 synergistic gene activation using a luciferase reporter assay (Kinnunen et al. [2015]). Toxicity profiling was carried out in eight cell types: the H9c2 myoblast cell line, NRVCs, CFs, mESCs, MEFs, mESC derivatives from day 5 embryoid bodies (D5EBs), hiPSCs and hiPSC-CMs. All cell cultures were maintained at 37 °C in a humidified atmosphere of 5% carbon dioxide (CO2) and the regular growth medium was used for compound exposures. Cell culture methods and cardiomyocyte differentiation from human pluripotent stem cells are described in Supplementary Information.
The empty expression plasmid MT2 (pMT2) and mouse Gata4 expressing pMT2-Gata4 plasmids were gifts from D. B. Wilson (Department of Pediatrics, St. Louis Children’s Hospital) (Arceci et al. [1993]). The luciferase reporter plasmid pGL3-3xHA containing three Nkx2-5 high-affinity binding sites has been described previously (Kinnunen et al. [2015]). To create mouse Nkx2-5 expressing pMT2-Nkx2-5, the cDNA was cloned from pFLCI-Nkx2-5 (clone D330001C20, Imagenes), which was a kind gift from R. Kerkelä (University of Oulu, Finland), with primers containing the EcoRI restriction site (forward: 5′-[…]-3′ and reverse 5′-[…]-3′) and ligated to pMT2 EcoRI site. The correct clone was identified by digestion with specific restriction enzymes and the sequence was verified by DNA sequencing (DNA Sequencing and Genomics Laboratory, Institute of Biotechnology, University of Helsinki, Finland).
COS-1 cells grown on 96-well plates were transfected with the luciferase reporter plasmid pGL3-3xHA (100 ng/well) and equal amounts of expression vectors pMT2-Gata4 and pMT2-Nkx2-5 (total of 50 ng/well) using Fugene 6 (Promega) at a reagent:DNA ratio of 3:1. Cells transfected with either pMT2, pMT2-Gata4 or pMT2-Nkx2-5 were used to confirm synergistic transactivation of the reporter gene in all experiments. After 6 h of transfection, the cells were treated with compounds or vehicle (0.1% dimethyl sulfoxide, DMSO) and the luminescence was measured 24 h later using Neolite Reporter Gene Assay System (PerkinElmer, Turku, Finland) according to manufacturer’s instructions and Victor2 plate reader (PerkinElmer, Turku, Finland). Each compound was tested in three technical replicates in at least two independent experiments.
A luciferase reporter assay with an artificial promoter containing three high-affinity binding sites for NKX2-5 was used to evaluate the effects of the compounds on GATA4–NKX2-5 transcriptional synergy (Kinnunen et al. [2015]). We have previously shown that while GATA4 alone induces only minimal activation of this promoter, it strongly potentiates NKX2-5-mediated transactivation (Kinnunen et al. [2015]; Välimäki et al. [2017]).

SMILES | effect on GATA4- and NKX2-5-induced gene activation (luciferase reporter activity)
CCN(CC)c1ccc(NC(=O)c2c(-c3coc(C)n3)noc2C)cc1 [3i-1228] | ineffective
CCN(CC)c1ccc(NC(=O)c2c(-n3cccc3)sc(C)c2C)cc1 [3i-1165] | only a weak effect
CCN(CC)c1ccc(NC(=O)c2ccsc2)cc1 [3i-1051] | ineffective

Test system: stem cell and progenitor cell viability
Assay: Toxicity classification from MTT screening across cell types
Settings: based on effects on stem cell and progenitor cell viability
Method: The cells were exposed to the test compounds for 24 h and cytotoxicity was quantified with MTT and LDH assays as described previously (Talman et al. [2011]). For the determination of cell membrane integrity, 50 µl of medium from each well was transferred onto a new 96-well plate followed by addition of 50 µl of substrate solution containing 1.3 mM β-nicotinamide adenine dinucleotide, 660 µM iodonitrotetrazolium, 54 mM L(+)-lactic acid, 280 µM phenazine methosulphate and 0.2 M Tris–HCl (pH 8.0). After a 30-min incubation, the reaction was stopped by adding 50 µl of 1 M acetic acid to each well and absorbance was measured at 490 nm using Victor2 plate reader (PerkinElmer, Turku, Finland). Spontaneous LDH release was measured from untreated cells, maximal LDH release from cells lysed with 0.9% Triton X-100 and background absorbance was measured from wells without cells. After background extraction, cytotoxicity was calculated as follows: cytotoxicity (%) = [(sample − spontaneous LDH release)/(maximal LDH release − spontaneous LDH release)] × 100. For quantification of metabolic activity, 3-(4,5-dimethylthiazol-2-yl)-2,5-diphenyltetrazolium bromide (MTT) was added to the cells at a final concentration of 0.5 mg/ml followed by 2 h incubation in cell culture conditions. The medium was then aspirated and formazan crystals were solubilized in DMSO. Absorbance was measured at 550 nm and absorbance at 650 nm was subtracted as background.
When comparing the effects of different compounds within each individual cell type, the compounds can be grouped into two main classes: toxic (3i-1000, 3i-1120, 3i-1148 and 3i-1229) and non-toxic (3i-1047, 3i-1051, 3i-1165, and 3i-1228) compounds. Based on the hiPSC toxicity data, 3i-1148 can be considered as the most toxic compound with an IC50 of 0.30 µM (Fig. 5b).

SMILES | toxicity class (toxic / non-toxic)
CCN(CC)c1ccc(NC(=O)c2c(-c3coc(C)n3)noc2C)cc1 [3i-1228] | non-toxic
CCN(CC)c1ccc(NC(=O)c2c(-n3cccc3)sc(C)c2C)cc1 [3i-1165] | non-toxic
CCN(CC)c1ccc(NC(=O)c2ccsc2)cc1 [3i-1051] | non-toxic
